Where two headings read alike, the source gives them in different places.
Test: Mouse blood and tissue PK (LC/MS-MS)
Type: in vivo
Settings: mouse, tumor, oral
Experimental: For single-dose PKPD study, mice were randomized and assigned into groups (n = 3/dose/time point). […] Blood and tissues, including the tumor, brain, colon, ear skin, and muscle, were harvested at indicated time points. […] The whole blood, tumor, brain, colon, and ear skin concentrations of RMC-6236 were determined using liquid chromatography–tandem mass spectrometry (LC/MS-MS) methods. […] After thorough mixing and centrifugation, the supernatant was diluted with water or directly analyzed on a Sciex 5500 or Sciex 6500+ triple quadrupole mass spectrometer equipped with an ACQUITY or Shimadzu UPLC system. […] Bioanalysis on blood and tissue samples from xenograft models was run at Pharmaron and Wuxi AppTec. Concentrations reported as below the quantification limit were treated as zero for PK analysis. PK parameters were calculated by noncompartmental analysis of the concentration–time profiles using Phoenix WinNonLin (version 8.3 Certara). Apparent terminal elimination half-life (t1/2) values were calculated as ln(2)/k, where k represents the terminal elimination rate constant. Area under the concentration–time curve (AUC) values were estimated using a linear trapezoidal method. AUClast values were calculated from the dosing time to the last quantifiable concentration. Maximum concentration (Cmax) was recorded as observed.

## CCn1c(-c2cc(N3CCN(C)CC3)cnc2[C@H](C)OC)c2c3cc(ccc31)-c1csc(n1)C[C@H](NC(=O)[C@H]1C[C@@H]1C)C(=O)N1CCC[C@H](N1)C(=O)OCC(C)(C)C2 [RMC-6236]
25 mg/kg, HPAC #4, 25 mg/kg, individual animals, read-out: RMC-6236 (nM) Tumor
  concentration at 4 h: 4090 nM
25 mg/kg, HPAC #4, 25 mg/kg, 8h, individual animals, read-out: RMC-6236 (nM) Tumor
  concentration at 8 h: 4080 nM
25 mg/kg, HPAC #4, 25 mg/kg, 24h, individual animals, read-out: RMC-6236 (nM) Tumor
  concentration at 24 h: 1260 nM
25 mg/kg, KP-4, study KP-4 #3, 25 mg/kg, 8h, read-out: RMC-6236 (nM) Tumor
  concentration at 8 h: 3260 nM
25 mg/kg, KP-4, study KP-4 #3, 25 mg/kg, 24h, read-out: RMC-6236 (nM) Tumor
  concentration at 24 h: 758 nM
25 mg/kg, KP-4, study KP-4 #4, 25 mg/kg, 8h, read-out: RMC-6236 (nM) Tumor
  concentration at 8 h: 3030 nM
25 mg/kg, KP-4, study KP-4 #4, 25 mg/kg, 24h, read-out: RMC-6236 (nM) Tumor
  concentration at 24 h: 840 nM
25 mg/kg, KP-4, study KP-4 #4, 25 mg/kg, 48h, read-out: RMC-6236 (nM) Tumor
  concentration at 48 h: 312 nM
25 mg/kg, KP-4, study KP-4 #5, 25 mg/kg, read-out: RMC-6236 (nM) Tumor
  concentration at 4 h: 2460 nM
25 mg/kg, KP-4, study KP-4 #5, 25 mg/kg, 24h, read-out: RMC-6236 (nM) Tumor
  concentration at 24 h: 859 nM
25 mg/kg, KP-4, study KP-4 #5, 25 mg/kg, 48h, read-out: RMC-6236 (nM) Tumor
  concentration at 48 h: 281 nM
25 mg/kg, KP-4, study KP-4 #6, 25 mg/kg, 8h, read-out: RMC-6236 (nM) Tumor
  concentration at 8 h: 4160 nM
25 mg/kg, KP-4, study KP-4 #6, 25 mg/kg, 24h, read-out: RMC-6236 (nM) Tumor
  concentration at 24 h: 1500 nM
25 mg/kg, KP-4, study KP-4 #6, 25 mg/kg, 48h, read-out: RMC-6236 (nM) Tumor
  concentration at 48 h: 739 nM
25 mg/kg, Model Development Dataset, 25mg/kg_study8, read-out: Tumor Concentration
  concentration at 1 h: 457 nM
25 mg/kg, Model Development Dataset, 25mg/kg_study8, 2 h, read-out: Tumor Concentration
  concentration at 2 h: 1530 nM
25 mg/kg, Model Development Dataset, 25mg/kg_study8, 8 h, read-out: Tumor Concentration
  concentration at 8 h: 2320 nM
25 mg/kg, Model Development Dataset, 25mg/kg_study8, 24 h, read-out: Tumor Concentration
  concentration at 24 h: 995 nM
25 mg/kg, Model Development Dataset, 25mg/kg_study8r (doses every 24 h, 0-[…]), read-out: Tumor Concentration
  concentration at 240 h: 410 nM
25 mg/kg, Model Validation Dataset, 25mg/kg_study6, read-out: Tumor Concentration
  concentration at 1 h: 358 nM
25 mg/kg, Model Validation Dataset, 25mg/kg_study6, 8 h, read-out: Tumor Concentration
  concentration at 8 h: 2570 nM
25 mg/kg, Model Validation Dataset, 25mg/kg_study6, 24 h, read-out: Tumor Concentration
  concentration at 24 h: 890 nM
25 mg/kg, Model Validation Dataset, 25mg/kg_study6, 48 h, read-out: Tumor Concentration
  concentration at 48 h: 690 nM
25 mg/kg, Model Validation Dataset, 25mg/kg_study6, 72 h
  concentration at 72 h: 433 nM
25 mg/kg, NCI-H441 xenograft tumor, study NCI-H441#6, 25 mg/kg, 8h, read-out: RMC-6236 (nM) Tumor
  concentration at 8 h: 2380 nM
25 mg/kg, NCI-H441 xenograft tumor, study NCI-H441#6, 25 mg/kg, 24h, read-out: RMC-6236 (nM) Tumor
  concentration at 24 h: 989 nM
25 mg/kg, NCI-H441 xenograft tumor, study NCI-H441#6, 25 mg/kg, 48h, read-out: RMC-6236 (nM) Tumor
  concentration at 48 h: 641 nM
25 mg/kg, NCI-H441 xenograft tumor, study NCI-H441#8, 25 mg/kg, 8h, read-out: RMC-6236 (nM) Tumor
  concentration at 8 h: 2740 nM
25 mg/kg, NCI-H441 xenograft tumor, study NCI-H441#8, 25 mg/kg, 24h, read-out: RMC-6236 (nM) Tumor
  concentration at 24 h: 1080 nM
25 mg/kg, sheet colon, KP-4, KP-4 #5, 25 mg/kg, read-out: RMC-6236 (nM) Tumor
  concentration at 4 h: 5860 nM
40 mg/kg, KP-4, study KP-4 #4, 40 mg/kg, 24h, read-out: RMC-6236 (nM) Tumor
  concentration at 24 h: 1620 nM
40 mg/kg, KP-4, study KP-4 #4, 40 mg/kg, 48h, read-out: RMC-6236 (nM) Tumor
  concentration at 48 h: 661 nM
40 mg/kg, Model Development Dataset, 40mg/kg_study8, read-out: Tumor Concentration
  concentration at 1 h: 947 nM
40 mg/kg, Model Development Dataset, 40mg/kg_study8, 2 h, read-out: Tumor Concentration
  concentration at 2 h: 3090 nM
40 mg/kg, Model Development Dataset, 40mg/kg_study8, 8 h, read-out: Tumor Concentration
  concentration at 8 h: 3380 nM
40 mg/kg, Model Development Dataset, 40mg/kg_study8, 24 h, read-out: Tumor Concentration
  concentration at 24 h: 1810 nM
40 mg/kg, Model Development Dataset, 40mg/kg_study8r (doses every 24 h, 0-[…]), read-out: Tumor Concentration
  concentration at 240 h: 876 nM
40 mg/kg, NCI-H441 xenograft tumor, study NCI-H441#8, 40 mg/kg, 2h, read-out: RMC-6236 (nM) Tumor
  concentration at 2 h: 3260 nM
40 mg/kg, NCI-H441 xenograft tumor, study NCI-H441#8, 40 mg/kg, 8h, read-out: RMC-6236 (nM) Tumor
  concentration at 8 h: 2820 nM
50 mg/kg, HPAC #3, 50 mg/kg, individual animals, read-out: RMC-6236 (nM) Tumor
  concentration at 4 h: 4620 nM
50 mg/kg, HPAC #3, 50 mg/kg, 8h, individual animals, read-out: RMC-6236 (nM) Tumor
  concentration at 8 h: 6090 nM
50 mg/kg, HPAC #3, 50 mg/kg, 24h, individual animals, read-out: RMC-6236 (nM) Tumor
  concentration at 24 h: 3810 nM
50 mg/kg, HPAC #3, 50 mg/kg, 48h, individual animals, read-out: RMC-6236 (nM) Tumor
  concentration at 48 h: 1440 nM
50 mg/kg, KP-4, study KP-4 #3, 50 mg/kg, 8h, read-out: RMC-6236 (nM) Tumor
  concentration at 8 h: 5580 nM
50 mg/kg, KP-4, study KP-4 #3, 50 mg/kg, 24h, read-out: RMC-6236 (nM) Tumor
  concentration at 24 h: 2070 nM
50 mg/kg, KP-4, study KP-4 #3, 50 mg/kg, 48h, read-out: RMC-6236 (nM) Tumor
  concentration at 48 h: 489 nM
50 mg/kg, Model Validation Dataset, 50mg/kg_study6, read-out: Tumor Concentration
  concentration at 1 h: 1310 nM
50 mg/kg, Model Validation Dataset, 50mg/kg_study6, 8 h, read-out: Tumor Concentration
  concentration at 8 h: 4800 nM
